Data: PubChem BioAssay AID1963422 (Molecular Pharmacology Branch, DTP, NCI, 2024)
Blank lines part the entries; values can stand above or below the compound they belong to.

Tested on: 463943-066-T-J2-PDC complex spheroid growth
Assay: Anticancer human tumor 463943-066-T-J2-PDC patient-derived colon adenocarcinoma cell line growth inhibition [Asc]
Settings: for IC50: curve of first compound; for viability, T/C: stronger effect = lower value
Protocol: Multicellular complex tumor spheroid response to apoptosis pathway targeting inhibitors Alrizomadlin, Pelcitoclax, and Dasminapant in combination with a variety of drugs and investigational agents in selected tumor cell lines
The MDM2 inhibitor alrizomadlin, the Bcl-2/Bcl-xL inhibitor pelcitoclax, and the IAPs inhibitor dasminapant were evaluated both individually and in combination with standard of care and investigational anticancer small molecules within a complex spheroid model of solid tumors. . Complex spheroids include a stromal component modeled by human endothelial cells (HUVEC) and fibroblasts modeled by human mesenchymal stem cells (MSCs). The concentration ranges selected for each drug and investigational agent were based upon clinically achievable concentrations if the clinical Cmax of the agent was known.
Compounds. The drugs and investigational agents: alrizomadlin (APG-115; NSC831270), pelcitoclax (APG-1252; NSC835773), dasminapant (APG-1387;NSC834197), TAK-243 (NSC785004), copanlisib (NSC809693), olaparib (NSC753686), talazoparib (NSC767125), cobimetinib (NSC 768068), eltanexor (KPT-8602, NSC 794443), abemaciclib (NSC 768073), sotorasib (NSC818433), adagrasib (NSC 831453), MRTX-1133 (NSC 836407), Iadademestat (ORY1001, NSC 806812), and RMC-4630 (NSC839698), were obtained from the NCI Developmental Therapeutics Program Chemical Repository. The FDA-approved anticancer drug set is available from the Developmental Therapeutics Program at https://dtp.cancer.gov/organization/dscb/obtaining/available plates.htm. […] The stock solutions were prepared in dimethyl sulfoxide (DMSO, Sigma-Aldrich, St. Louis, MO, cat. D2650) at 800-fold the tested concentration and stored at -70 degrees C prior to their use. All drugs and investigational agents were tested over a range starting from a high concentration at or near the clinical Cmax and decreasing in half-log increments. If the clinical Cmax for an agent had not been determined, the highest concentration tested was 10 microM.
The patient-derived cancer (PDC) cell lines include five colon adenocarcinomas: 186277-243-T-J2-PDC, 616215-338-R-J1-PDC, 439559-082-T-J2-PDC, 463943-066-T-J2-PDC, and 519858-162-T-J1-PDC; three pancreatic carcinomas: 323965-272-R-J2-PDC, 521955-158-R6-J3-PDC, and 521955-158-R2-J5-PDC; two uterine sarcomas: 327498-152-R-J2-PDC and 993429-296-R-J1-PDC; two rhabdomyosarcomas: 755483-174-R-J1-PDC and 772245-204-R-J1-PDC; two soft tissue sarcomas: 126254-015-R-J1-PDC and 494315-158-R-J1-PDC; two malignant fibrous histiocytomas: 317291-083-R-J1-PDC and 596521-263-R-J1-PDC; two breast carcinomas: 171881-019-R-J1-PDC and 885512-296-R-J2-PDC; and one ovarian carcinoma: 6556581-035-R-J-PDC were obtained from the NCI PDMR, (https://pdmr.cancer.gov). The established cell lines HSSY-2 synovial sarcoma (RRID:CVCL 8719), SYO-1 synovial sarcoma (RRID:CVCL_7146), MPNST malignant peripheral neural sheath tumor were obtained from the Sloan Kettering Institute. The following established cell lines were purchased from the American Type Culture Collection (ATCC, Manassas, VA), Sor the received from the NCI repository:, PANC-1 pancreatic carcinoma (CRL-1469, RRID:CVCL_0480), OVCAR-5 ovarian carcinoma (RRID:CVCL_1628), OVCAR-8 ovarian carcinoma (RRID:CVCL_1629), , MCF-7 breast carcinoma (CRL-12584, RRID:CVCL_0031), MDA-MB-231 breast carcinoma (CRL-12532, RRID:CVCL_0062), NCI-H1876 small cell lung carcinoma (CRL-5902, RRID:CVCL_1503), NCI-H510A small cell lung carcinoma (HTB-184, RRID:CVCL_1565), NCI-H1417 (CRL-5869, RRID:CVCL_1469), and NCI-H196 small cell lung carcinoma (CRL-5823, RRID:CVCL_1509). Dr. Peter Houghton (Greehey Children's Cancer Research Institute, University of Texas Health Science Center, San Antonio, TX) provided Rh-18 rhabdomyosarcoma (RRID:CVCL_1659). Pooled donor human umbilical vein endothelial cells (HUVEC, Lonza, cat. CC-2519) and human mesenchymal stem cells (hMSC, Lonza, cat. PT-2501) were purchased from Lonza (Walkersville, MD).
Cell Culture. […]
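Further: compound exposure lasted 7 days.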
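Wherever viability, T/C is given: 100% = DMSO vehicle control wells.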

IC50 (second compound 0.00949 µM): > 1 µM
IC50 (second compound 0.03 µM): > 1 µM
IC50 (second compound 0.0949 µM): > 1 µM
IC50 (second compound 0.3 µM): > 1 µM
IC50 (second compound 0.949 µM): > 1 µM
IC50 (second compound 3 µM): > 1 µM
Compound: CNC(C)C(=O)NC1CN(S(=O)(=O)c2cccc(S(=O)(=O)N3CCC4CCC(C(=O)NC(c5ccccc5)c5ccccc5)N4C(=O)C(NC(=O)C(C)NC)C3)c2)CCC2CCC(C(=O)NC(c3ccccc3)c3ccccc3)N2C1=O (centres undefined) + CCN1C(C(=O)NC23CCC(C(=O)O)(CC2)CC3)C(c2cccc(Cl)c2F)C2(C(=O)Nc3cc(Cl)ccc32)C12CCCCC2
viability, T/C (second compound 0.00949 µM, first compound 0.00316 µM): 96.9%
viability, T/C (second compound 0.00949 µM, first compound 0.01 µM): 93.3%
viability, T/C (second compound 0.00949 µM, first compound 0.0316 µM): 99.3%
viability, T/C (second compound 0.00949 µM, first compound 0.1 µM): 93.7%
viability, T/C (second compound 0.00949 µM, first compound 0.316 µM): 95.9%
viability, T/C (second compound 0.00949 µM, first compound 1 µM): 86.8%
viability, T/C (second compound 0.03 µM, first compound 0.00316 µM): 103%
viability, T/C (second compound 0.03 µM, first compound 0.01 µM): 96.6%
viability, T/C (second compound 0.03 µM, first compound 0.0316 µM): 89.4%
viability, T/C (second compound 0.03 µM, first compound 0.1 µM): 93.2%
viability, T/C (second compound 0.03 µM, first compound 0.316 µM): 95%
viability, T/C (second compound 0.03 µM, first compound 1 µM): 85%
viability, T/C (second compound 0.0949 µM, first compound 0.00316 µM): 94.2%
viability, T/C (second compound 0.0949 µM, first compound 0.01 µM): 93.2%
viability, T/C (second compound 0.0949 µM, first compound 0.0316 µM): 81.9%
viability, T/C (second compound 0.0949 µM, first compound 0.1 µM): 89.3%
viability, T/C (second compound 0.0949 µM, first compound 0.316 µM): 91.8%
viability, T/C (second compound 0.0949 µM, first compound 1 µM): 86.1%
viability, T/C (second compound 0.3 µM, first compound 0.00316 µM): 83.8%
viability, T/C (second compound 0.3 µM, first compound 0.01 µM): 81.1%
viability, T/C (second compound 0.3 µM, first compound 0.0316 µM): 82.1%
viability, T/C (second compound 0.3 µM, first compound 0.1 µM): 81.9%
viability, T/C (second compound 0.3 µM, first compound 0.316 µM): 84.6%
viability, T/C (second compound 0.3 µM, first compound 1 µM): 81%
viability, T/C (second compound 0.949 µM, first compound 0.00316 µM): 73.1%
viability, T/C (second compound 0.949 µM, first compound 0.01 µM): 85.1%
viability, T/C (second compound 0.949 µM, first compound 0.0316 µM): 76.1%
viability, T/C (second compound 0.949 µM, first compound 0.1 µM): 75.8%
viability, T/C (second compound 0.949 µM, first compound 0.316 µM): 76.8%
viability, T/C (second compound 0.949 µM, first compound 1 µM): 71.5%
viability, T/C (second compound 3 µM, first compound 0.00316 µM): 71.1%
viability, T/C (second compound 3 µM, first compound 0.01 µM): 73.2%
viability, T/C (second compound 3 µM, first compound 0.0316 µM): 74.7%
viability, T/C (second compound 3 µM, first compound 0.1 µM): 69.3%
viability, T/C (second compound 3 µM, first compound 0.316 µM): 75.5%
viability, T/C (second compound 3 µM, first compound 1 µM): 69.4%

IC50 (second compound 0.0316 µM): > 1 µM
IC50 (second compound 0.1 µM): > 1 µM
IC50 (second compound 0.316 µM): > 1 µM
IC50 (second compound 1 µM): > 1 µM
IC50 (second compound 3.16 µM): > 1 µM
IC50 (second compound 10 µM): 0.368 µM
Compound: CNC(C)C(=O)NC1CN(S(=O)(=O)c2cccc(S(=O)(=O)N3CCC4CCC(C(=O)NC(c5ccccc5)c5ccccc5)N4C(=O)C(NC(=O)C(C)NC)C3)c2)CCC2CCC(C(=O)NC(c3ccccc3)c3ccccc3)N2C1=O (centres undefined) + Cc1c(S(C)(=O)=O)c(-c2cc(F)cc(N3CCN(c4ccc(NS(=O)(=O)c5ccc(NC(CCN6CCC(C(=O)OCCCP(=O)(O)O)CC6)CSc6ccccc6)c(S(=O)(=O)C(F)(F)F)c5)cc4)CC3)c2)c(-c2ccc(Cl)cc2)n1C(C)C
viability, T/C (second compound 0.0316 µM, first compound 0.00316 µM): 99.7%
viability, T/C (second compound 0.0316 µM, first compound 0.01 µM): 97.5%
viability, T/C (second compound 0.0316 µM, first compound 0.0316 µM): 97.2%
viability, T/C (second compound 0.0316 µM, first compound 0.1 µM): 99.9%
viability, T/C (second compound 0.0316 µM, first compound 0.316 µM): 97.6%
viability, T/C (second compound 0.0316 µM, first compound 1 µM): 80.7%
viability, T/C (second compound 0.1 µM, first compound 0.00316 µM): 100%
viability, T/C (second compound 0.1 µM, first compound 0.01 µM): 91.6%
viability, T/C (second compound 0.1 µM, first compound 0.0316 µM): 96.6%
viability, T/C (second compound 0.1 µM, first compound 0.1 µM): 94.4%
viability, T/C (second compound 0.1 µM, first compound 0.316 µM): 98.8%
viability, T/C (second compound 0.1 µM, first compound 1 µM): 74%
viability, T/C (second compound 0.316 µM, first compound 0.00316 µM): 88.6%
viability, T/C (second compound 0.316 µM, first compound 0.01 µM): 89.3%
viability, T/C (second compound 0.316 µM, first compound 0.0316 µM): 88.2%
viability, T/C (second compound 0.316 µM, first compound 0.1 µM): 87.4%
viability, T/C (second compound 0.316 µM, first compound 0.316 µM): 93.2%
viability, T/C (second compound 0.316 µM, first compound 1 µM): 70.6%
viability, T/C (second compound 1 µM, first compound 0.00316 µM): 82.8%
viability, T/C (second compound 1 µM, first compound 0.01 µM): 77%
viability, T/C (second compound 1 µM, first compound 0.0316 µM): 77.8%
viability, T/C (second compound 1 µM, first compound 0.1 µM): 83.8%
viability, T/C (second compound 1 µM, first compound 0.316 µM): 76.8%
viability, T/C (second compound 1 µM, first compound 1 µM): 67.2%
viability, T/C (second compound 3.16 µM, first compound 0.00316 µM): 65.8%
viability, T/C (second compound 3.16 µM, first compound 0.01 µM): 77.3%
viability, T/C (second compound 3.16 µM, first compound 0.0316 µM): 66%
viability, T/C (second compound 3.16 µM, first compound 0.1 µM): 68.9%
viability, T/C (second compound 3.16 µM, first compound 0.316 µM): 70.7%
viability, T/C (second compound 3.16 µM, first compound 1 µM): 48.2%
viability, T/C (second compound 10 µM, first compound 0.00316 µM): 52.3%
viability, T/C (second compound 10 µM, first compound 0.01 µM): 49.5%
viability, T/C (second compound 10 µM, first compound 0.0316 µM): 52%
viability, T/C (second compound 10 µM, first compound 0.1 µM): 51.3%
viability, T/C (second compound 10 µM, first compound 0.316 µM): 52.5%
viability, T/C (second compound 10 µM, first compound 1 µM): 40.8%
